Patent publication US20070041899A1, “Radiolabelled substrates” (priority 2003, published 2007)

Legend:
P-glycoprotein = P-glycoprotein (Sus scrofa, UniProt K7GMM7); conditions: pig
Description: (§1) The animals (pig, Yorkshire Iandrace, 37.5 kg, n=2) were scanned under terminal aneasthesia (ketamine induced isoflurane aneasthesia) on different days. For both animals an arterial cannula was inserted in one of the femoral arteries.

[1] = Rate of metabolism of [^11C]loperamide (arterial blood sampling) in pig
Description: as §1

P-glycoprotein, sequence (K7GMM7 1-1248): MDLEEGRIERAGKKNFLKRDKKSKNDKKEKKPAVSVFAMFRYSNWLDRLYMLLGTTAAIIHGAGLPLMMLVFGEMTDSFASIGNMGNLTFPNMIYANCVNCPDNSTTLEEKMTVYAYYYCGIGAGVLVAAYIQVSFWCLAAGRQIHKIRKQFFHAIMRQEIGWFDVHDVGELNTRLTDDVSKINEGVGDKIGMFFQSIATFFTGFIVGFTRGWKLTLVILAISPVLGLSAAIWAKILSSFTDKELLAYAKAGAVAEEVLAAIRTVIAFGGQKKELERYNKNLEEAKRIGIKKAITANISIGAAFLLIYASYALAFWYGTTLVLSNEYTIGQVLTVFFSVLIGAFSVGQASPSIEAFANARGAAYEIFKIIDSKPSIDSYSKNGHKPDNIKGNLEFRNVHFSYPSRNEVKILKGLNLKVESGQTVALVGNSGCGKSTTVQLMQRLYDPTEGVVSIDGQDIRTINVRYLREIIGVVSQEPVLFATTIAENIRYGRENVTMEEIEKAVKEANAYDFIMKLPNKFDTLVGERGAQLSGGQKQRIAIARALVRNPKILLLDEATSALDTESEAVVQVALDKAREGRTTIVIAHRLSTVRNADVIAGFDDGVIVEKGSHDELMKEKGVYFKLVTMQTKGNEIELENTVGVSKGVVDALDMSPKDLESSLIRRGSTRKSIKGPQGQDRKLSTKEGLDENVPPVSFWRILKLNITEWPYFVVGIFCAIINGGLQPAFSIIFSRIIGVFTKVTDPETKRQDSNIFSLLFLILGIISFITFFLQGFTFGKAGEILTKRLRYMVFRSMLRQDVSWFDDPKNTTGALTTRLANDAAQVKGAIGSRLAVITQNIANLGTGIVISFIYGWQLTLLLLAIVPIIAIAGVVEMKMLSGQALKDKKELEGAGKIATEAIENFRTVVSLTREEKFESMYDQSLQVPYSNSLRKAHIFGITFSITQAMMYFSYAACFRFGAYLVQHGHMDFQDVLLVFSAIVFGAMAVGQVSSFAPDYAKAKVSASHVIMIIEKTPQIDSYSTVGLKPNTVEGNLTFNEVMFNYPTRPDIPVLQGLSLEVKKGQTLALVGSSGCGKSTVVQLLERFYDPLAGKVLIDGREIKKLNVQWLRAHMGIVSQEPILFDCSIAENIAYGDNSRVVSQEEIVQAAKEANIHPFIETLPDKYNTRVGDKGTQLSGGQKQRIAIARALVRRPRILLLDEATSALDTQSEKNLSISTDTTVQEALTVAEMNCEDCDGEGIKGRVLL

Compound: CN([11CH3])C(=O)C(CCN1CCC(O)(c2ccc(Cl)cc2)CC1)(c1ccccc1)c1ccccc1 [[^11C]loperamide, ^11C—N-methyl-(4-chlorophenyl)+hydroxy-N,N-dimethyl-alpha,alpha-diphenyl-1-piperidinebutyramide]
- Maximum increase of CNS penetration for the brain as a whole (P-glycoprotein; at a dose of 40-50 mg/kg Cyclosporin A i.v. 30 min prior): 7 fold
- % injected dose/L (CNS penetration) (P-glycoprotein; i.v. 1 min bolus, baseline conditions, PET): below 1%
- radioactive signal in the brain as measured with PET scanning (P-glycoprotein; i.v. various doses of cyclosporin A 30 min prior to injection): dose dependent increase
- rate of metabolism: parent at 60 min post administration ([1]; at doses of CsA >10 mg/kg): approx. 80 % parent
- rate of metabolism: parent at 60 min post administration ([1]; without CsA >10 mg/kg (before decrease)): approx. 50 % parent
